The subject of assay [1] is Aβ production. As to the kind of experiment: Cellular Aβ IC50 determination (Aβ40 sandwich ELISA). Type of assay: cell-based. The conditions noted are these: Cricetulus griseus; Aβ40, Chinese hamster ovary cells over-expressing human APP695 with London and Swedish mutations, 24 h incubation. As for the experimental part:
The potency of compounds against memapsin 2 activity was determined in a cellular assay of Aβ production. […] Chinese hamster ovary cells that over-express human APP695 with the London and Swedish mutations were seeded in multi-well plates at 10% confluency. Compounds were dissolved in DMSO to concentrations near 1 mM, and diluted into culture media to a final concentration near 4 μM (final 0.4% DMSO). Compounds were diluted serially and applied to cells in multi-well plates 48 h after seeding. Incubation was continued in 5% CO2 at 37 degrees C. for 24 h. Aliquots were removed and assayed for Aβ40 content using a sandwich ELISA (BioSource International). Amount of Aβ40 over the range of concentration of compounds, relative to control incubations, were fit to a 4-parameter IC50 model.
Background: An ELISA detects its analyte on a solid surface through an enzyme-linked reagent.

The target in assay [2] is memapsin 2 (Homo sapiens, UniProt P56817). The assay is described as follows: Inhibition of memapsin 2 beta-secretase activity toward fluorogenic substrate FS-2. Type of assay: biochemical. Particulars: pH 4, 37° C., 20 minutes pre-incubation, fluorogenic substrate FS-2, tight-binding model; read-out: M2 Ki.
Chain of memapsin 2 (P56817 46-501): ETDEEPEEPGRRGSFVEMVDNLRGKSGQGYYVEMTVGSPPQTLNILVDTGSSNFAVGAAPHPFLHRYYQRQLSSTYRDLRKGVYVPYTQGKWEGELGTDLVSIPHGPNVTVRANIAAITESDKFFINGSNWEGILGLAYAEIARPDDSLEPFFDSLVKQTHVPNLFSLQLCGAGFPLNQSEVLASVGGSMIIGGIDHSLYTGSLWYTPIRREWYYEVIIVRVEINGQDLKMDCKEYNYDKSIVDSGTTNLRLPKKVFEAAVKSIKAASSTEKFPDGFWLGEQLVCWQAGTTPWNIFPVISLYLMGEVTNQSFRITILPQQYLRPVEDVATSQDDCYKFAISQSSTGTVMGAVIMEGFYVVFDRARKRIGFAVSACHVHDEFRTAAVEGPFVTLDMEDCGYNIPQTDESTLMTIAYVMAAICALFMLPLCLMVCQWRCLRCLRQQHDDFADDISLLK
Method: Potency of compounds were determined by measurement of their inhibition of memapsin 2 activity toward a fluorescent substrate. […] Briefly, assays were performed at pH 4, 37° C., by pre-incubation of memapsin 2 enzyme with compound for 20 minutes. Activity measure was initiated by addition of a fluorogenic substrate FS-2 (Bachem Americas, Torrance, Calif.). Fluorescent signal increase over time was measured as a rate of hydrolysis of the peptide substrate.
The target in assay [3] is Cathepsin D (Homo sapiens, UniProt P07339). The assay is described as follows: Inhibition of cathepsin D activity (MALDI-TOF, substrate peptide […]). Format: biochemical. The conditions noted are these: pH 4.1, 37 degrees C., read-out: Cath D Ki.
Chain of Cathepsin D (P07339 65-412, species assumed): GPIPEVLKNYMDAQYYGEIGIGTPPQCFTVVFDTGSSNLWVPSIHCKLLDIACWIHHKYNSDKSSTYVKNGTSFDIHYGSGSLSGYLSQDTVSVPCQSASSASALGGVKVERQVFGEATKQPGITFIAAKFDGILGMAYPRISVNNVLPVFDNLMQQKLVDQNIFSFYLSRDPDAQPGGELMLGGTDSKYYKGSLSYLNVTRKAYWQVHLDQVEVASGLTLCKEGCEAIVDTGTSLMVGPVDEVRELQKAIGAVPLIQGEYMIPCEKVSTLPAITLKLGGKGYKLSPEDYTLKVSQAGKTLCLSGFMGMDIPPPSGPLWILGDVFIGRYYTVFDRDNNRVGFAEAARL
Method: After equilibration at 37 degrees C., the reactions were initiated by the addition of an aliquot of memapsin 2. Aliquots were removed at time intervals, and combined with an equal volume of MALDI-TOF matrix (α-hydroxycinnamic acid in acetone, 20 mg/ml) and immediately spotted in duplicate onto a stainless-steel MALDI sample plate. MALDI-TOF mass spectrometry was performed on a PE Biosystems Voyager DE instrument at the Molecular Biology Resource Center on campus. The instrument was operated at 25,000 accelerating volts in positive mode with a 150 ns delay. Ions with a mass-to-charge ratio (m/z) were detected in the range of 650-2000 atomic mass units. Data was analyzed by the Voyager Data Explorer module to obtain ion intensity data for mass species of substrates and corresponding products in a given mixture. Relative product formation was calculated as the ratio of signal intensity of the product to the sum of signal intensities of both product and the corresponding substrate. Relative product formed per unit time was obtained from non-linear regression analysis of the data representing the initial 15% formation of product using the model: 1−e^−kT,
where k is the relative hydrolytic rate constant and T is time in seconds. Initial rates were expressed relative to uninhibited controls and fit to a tight-binding model of competitive inhibition as above.

The IC50 is the point on the concentration scale where inhibition reaches its midpoint. Low readings indicate greater potency in that assay, high ones weaker potency in that assay. As a reminder, the Ki is a dissociation constant, usually derived from enzyme kinetics or from competition with a known ligand. In assay [1], `Cc1csc(C[C@H](C)C(=O)N[C@@H](CNC(=O)OC(C)(C)C)C(=O)N[C@@H](CC(C)C)[C@@H](O)C[C@@H](C)C(=O)N[C@H](C(=O)NCc2ccncc2)C(C)C)n1` [tert-butyl (S)-3-(4S,5S,7R)-hydromxy-2,7-dimethyl-8-((S)-3-methyl-1-oxo-1-(pyridin-4-ylmethylamino)butan-2-ylamino)-8-oxooctan-4-ylamino)-2-((S)-2-methyl-3-(4-methylthiazol-2-yl)propanamido)-3-oxopropylcarbamate] registered an IC50 of less than 6000 nM. Moreover, the Ki in assay [2] is less than 100 nM; in assay [3] it was 100 to 600 nM.
In assay [1], `Cc1csc(C[C@H](C)C(=O)N[C@@H](CNC(=O)OC(C)(C)C)C(=O)N[C@@H](Cc2ccccc2)[C@@H](O)C[C@@H](C)C(=O)N[C@H](C(=O)NCC(C)C)C(C)C)n1` [tert-butyl (S)-3-((2S,3S,5 R)-3-hydroxy-6-((S)-1-(isobutylamino)-3-methyl-1-oxobutan-2-ylamino)-5-methyl-6-oxo-1-phenylhexan-2-ylamino)-2-((S)-2-methyl-3-(4-methylthiazol-2-yl)propanamido)-3-oxopropylcarbamate] registered a 50% inhibitory concentration (IC50) of 6000 to 100000 nM. Besides, the inhibition constant Ki in assay [2] and in assay [3] was less than 100 nM each time.
Molecule `Cc1nc(C[C@H](C)C(=O)N[C@@H](CNC(=O)OC(C)(C)C)C(=O)N[C@@H](CC(C)C)[C@@H](O)C[C@@H](C)C(=O)N[C@H](C(=O)NCC(C)C)C(C)C)c(C)o1` [tert-butyl (S)-2-((S)-3-(2,5-dimethyloxazol-4-yl)-2-methylpropanamido)-3-((4S,5S,7R)-5-hydroxy-8-((S)-1-(isobutylamino)-3-methyl-1-oxobutan-2-ylamino)-2,7-dimethyl-8-oxooctan-4-ylamino)-3-oxopropylcarbamate] returned an IC50 in assay [1] of less than 6000 nM. Moreover, the inhibitory constant (Ki) in assay [2] and in assay [3] was less than 100 nM each time.
Molecule `CC[C@H](C[C@H](O)[C@H](CC(C)C)NC(=O)[C@H](CNC(=O)OC(C)(C)C)NC(=O)[C@@H](C)Cc1nc(C)cs1)C(=O)N[C@H](C(=O)NCC(C)C)C(C)C` [tert-butyl (S)-3-((4S,5S,7R)-5-hydroxy-7-((S)-1-(isobutylamino)-3-methyl-1-oxobutan-2-ylcarbamoyl)-2-methylnonan-4-ylamino)-2-((S)-2-methyl-3-(4-methylthiazol-2-yl)propanamido)-3-oxopropylcarbamate] showed a half-maximal inhibitory concentration (IC50) in assay [1] of less than 6000 nM. Also, the Ki in assay [2] and in assay [3] was less than 100 nM in each case.
`CC[C@@H](Cn1nc(C)cc1C)C(=O)N[C@@H](CNC(=O)OC(C)(C)C)C(=O)N[C@@H](CC(C)C)[C@@H](O)C[C@@H](C)C(=O)N[C@H](C(=O)NCC(C)C)C(C)C` [tert-butyl (S)-2-((S)-2-((3,5-dimethyl-1H-pyrazol-1-yl)methyl)butanamido)-3-((4S,5S,7R)-5-hydroxy-8-((S)-1-(isobutylamino)-3-methyl-1-oxobutan-2-ylamino)-2,7-dimethyl-8-oxooctan-4-ylamino)-3-oxopropylcarbamate] gave a concentration for half-maximal inhibition (IC50) in assay [1] of less than 6000 nM. Also, the inhibitory constant (Ki) in assay [2] and in assay [3] was less than 100 nM throughout.
Turning to `CC[C@@H](Cn1nc(C)cc1C)C(=O)N[C@@H](CNC(=O)OC(C)(C)C)C(=O)N[C@@H](CC(C)C)[C@@H](O)C[C@@H](C)C(=O)N[C@H](C(=O)NCC(F)(F)F)C(C)C` [tert-butyl (S)-2-((S)-2-((3,5-dimethyl-1H-pyrazol-1-yl)methyl)butanamido)-3-((4S,5S,7R)-5-hydroxy-2,7-dimethyl-8-((S)-3-methyl-1-oxo-1-(2,2,2-trifluoroethylamino)butan-2-ylamino)-8-oxooctan-4-ylamino)-3-oxopropylcarbamate], the IC50 in assay [1] was in the range of 6000 to 100000 nM. Besides, the Ki in assay [2] and in assay [3] was less than 100 nM each time.
Molecule `Cc1csc(C[C@H](C)C(=O)N[C@@H](CN)C(=O)N[C@@H](CC(C)C)[C@@H](O)C[C@@H](C)C(=O)N[C@H](C(=O)NCC(C)C)C(C)C)n1` [(2R,4S,5S)-5-((S)-3-amino-2-((S)-2-methyl-3-(4-methylthiazol-2-yl)propanamido)propanamido)-4-hydroxy-N-((S)-1-(isobutylamino)-3-methyl-1-oxobutan-2-yl)-2,7-dimethyloctanamide] had an IC50 in assay [1] of 6000 to 100000 nM. Further, the inhibition constant Ki in assay [2] and in assay [3] was 100 to 600 nM each time.
`CC[C@@H](Cc1nc(C)cs1)C(=O)N[C@@H](CNC(=O)OC(C)(C)C)C(=O)N[C@@H](CC(C)C)[C@@H](O)C[C@@H](C)C(=O)N[C@H](C(=O)NCC(C)C)C(C)C` [tert-butyl (S)-3-((4S,5S,7R)-5-hydroxy-8-((S)-1-(isobutylamino)-3-methyl-1-oxobutan-2-ylamino)-2,7-dimethyl-8-oxooctan-4-ylamino)-2-((S)-2-((4-methylthiazol-2-yl)methyl)butanamido)-3-oxopropylcarbamate]: the IC50 in assay [1] is less than 6000 nM. Besides, the inhibitory constant (Ki) in assay [2] and in assay [3] was less than 100 nM in each case.
For `CCC(Cn1nc(C)cc1C)C(=O)N[C@@H](CNC(=O)OCCF)C(=O)N[C@@H](CC(C)C)[C@@H](O)C[C@@H](C)C(=O)N[C@H](C(=O)NCC(C)C)C(C)C` (stereo partly drawn) [2-fluoroethyl (2S)-2-(2-((3,5-dimethyl-1H-pyrazol-1-yl)methyl)butanamido)-3-((4S,5S,7R)-5-hydroxy-8-((S)-1-(isobutylamino)-3-methyl-1-oxobutan-2-ylamino)-2,7-dimethyl-8-oxooctan-4-ylamino)-3-oxopropylcarbamate], the 50% inhibitory concentration (IC50) in assay [1] was in the range of 6000 to 100000 nM. Also, the Ki in assay [2] and in assay [3] was less than 100 nM in each case.
`Cc1cc(C)n(C[C@H](C)C(=O)N[C@@H](CNC(=O)O[C@H]2CCOC2)C(=O)N[C@@H](CC(C)C)[C@@H](O)C[C@@H](C)C(=O)N[C@H](C(=O)NCC(C)C)C(C)C)n1` [(S)-tetrahydrofuran-3-yl (S)-2-((S)-3-(3,5-dimethyl-1H-pyrazol-1-yl)-2-methylpropanamido)-3-((4S,5S,7R)-5-hydroxy-8-((S)-1-(isobutylamino)-3-methyl-1-oxobutan-2-ylamino)-2,7-dimethyl-8-oxooctan-4-ylamino)-3-oxopropylcarbamate]: the IC50 in assay [1] was 6000 to 100000 nM. Moreover, the inhibitory constant (Ki) in assay [2] and in assay [3] was less than 100 nM each time.
In assay [1], `Cc1csc(C[C@H](C)C(=O)N[C@@H](CNC(=O)O[C@H]2CCOC2)C(=O)N[C@@H](CC(C)C)[C@@H](O)C[C@@H](C)C(=O)N[C@H](C(=O)NCC(C)C)C(C)C)n1` [(S)-tetrahydrofuran-3-yl(S)-3-((4S,5S,7R)-5-hydroxy-8-((S)-1-(isobutylamino)-3-methyl-1-oxobutan-2-ylamino)2,7-dimethyl-8-oxooctan-4-ylamino)-2-((S)-2-methyl-3-(4-methylthiazol-2-yl)propanamido)-3-oxopropylcarbamate] displayed a 50% inhibitory concentration (IC50) of less than 6000 nM. For the same molecule, the Ki in assay [2] and in assay [3] was less than 100 nM each time.
As for `COC(Cn1nc(C)cc1C)C(=O)N[C@@H](CNC(=O)OC(C)(C)C)C(=O)N[C@@H](CC(C)C)[C@@H](O)C[C@@H](C)C(=O)N[C@H](C(=O)NCC(C)C)C(C)C` (stereo partly drawn) [tert-butyl (2S)-2-(3-(3,5-dimethyl-1H-pyrazol-1-yl)-2-methoxypropanamido)-3-((4S,5S,7R)-5-hydroxy-8-((S)-1-(isobutylamino)-3-methyl-1-oxobutan-2-ylamino)-2,7-dimethyl-8-oxooctan-4-ylamino)-3-oxopropylcarbamate], the IC50 in assay [1] is greater than 100000 nM. For the same molecule, the figures for the Ki in assay [2] and in assay [3] were 100 to 600 nM and less than 100 nM, respectively.
For the molecule `CC(=O)NC[C@H](NC(=O)[C@@H](C)Cc1nc(C)cs1)C(=O)N[C@@H](CC(C)C)[C@@H](O)C[C@@H](C)C(=O)N[C@H](C(=O)NCC(C)C)C(C)C` [(2R,4S,5S)-5-((S)-3-acetamido-2-((S)-2-methyl-3-(4-methylthiazol-2-yl)propanamido)propanamido)-4-hydroxy-N-((S)-1-(isobutylamino)-3-methyl-1-oxobutan-2-yl)-2,7-dimethyloctanamide], in assay [1], the IC50 fell in the range of 6000 to 100000 nM. The Ki in assay [2] is less than 100 nM; in assay [3], 100 to 600 nM.
Molecule `Cc1csc(COC(=O)NC[C@H](NC(=O)[C@@H](C)Cc2nc(C)cs2)C(=O)N[C@@H](CC(C)C)[C@@H](O)C[C@@H](C)C(=O)N[C@H](C(=O)NCC(C)C)C(C)C)n1` [(4-methylthiazol-2-yl)methyl (S)-3-((4S,5S,7R)-5-hydroxy-8-((S)-1-(isobutylamino)-3-methyl-1-oxobutan-2-ylamino)-2,7-dimethyl-8-oxooctan-4-ylamino)-2-((S)-2-methyl-3-(4-methylthiazol-2-yl)propanamido)-3-oxopropylcarbamate] returned an IC50 in assay [1] of less than 6000 nM. The inhibitory constant (Ki) in assay [2] and in assay [3] was less than 100 nM in each case.
`COC(=O)NC[C@H](NC(=O)[C@@H](C)Cc1nc(C)cs1)C(=O)N[C@@H](CC(C)C)[C@@H](O)C[C@@H](C)C(=O)N[C@H](C(=O)NCC(C)C)C(C)C` [methyl (S)-3-((4S,5S,7R)-5-hydroxy-8-((S)-1-(isobutylamino)-3-methyl-1-oxobutan-2-ylamino)-2,7-dimethyl-8-oxooctan-4-ylamino)-2-((S)-2-methyl-3-(4-methylthiazol-2-yl)propanamido)-3-oxopropylcarbamate]: in assay [1], the half-maximal inhibitory concentration (IC50) is less than 6000 nM. Besides, the inhibition constant Ki in assay [2] and in assay [3] was less than 100 nM in each case.
